Source: publication PMC9241943, “LcCCL28-25, Derived from Piscine Chemokine, Exhibits Antimicrobial Activity against Gram-Negative and Gram-Positive Bacteria In Vitro and In Vivo” (Microbiology Spectrum, 2022)
In brackets after ≈: the same amount, converted by molar mass. Residues, ends and D or L forms follow the SMILES beside them.

How the values were obtained:
[1] = system: Staphylococcus aureus USA300; settings: S. aureus USA300
Protocol: (§1) The MIC assays were performed as previously described ([43]). Briefly, peptides were plated in a 2-fold dilution series (50 μL/well) of Mueller-Hinton broth (MHB) in Costar 96-well cell culture plates (Corning, NY, USA). Three repeats were set for each concentration. E. coli ATCC 25922, A. hydrophila ATCC 7966, P. aeruginosa PAO1, P. aeruginosa FRD1, S. aureus ATCC 25923, S. agalactiae ATCC 13813, S. pneumoniae ATCC 49619, methicillin-resistant S. aureus ATCC 43300, and methicillin-resistant S. aureus USA300 were cultured in Luria-Bertani (LB) medium, while K. pneumoniae CMCC46117 was cultured in tryptic soy broth (TSB) medium. Incubation was done at 37°C and 150 × g for 12 h. Bacteria were transferred to fresh MHB at a ratio of 1% (vol/vol) and incubated to reach a logarithmic growth phase. Then, 50 μL of a bacterial suspension at 4 × 10^6 CFU/mL was added to each well. After incubation at 37°C for 22 ± 2 h, turbidity was measured using an EnSpire multimode plate reader (PerkinElmer, Singapore) at 595 nm.

[2] = system: Klebsiella pneumoniae CMCC46117; format: cell-based; settings: CMCC46117, 2 h
Protocol: as §1, with “After incubation at 37°C for 22 ± 2 h, turbidity was measured using an EnSpire multimode plate reader (PerkinElmer, Singapore) at 595 nm.” left out

[3] = system: Aeromonas hydrophila ATCC 7966; format: cell-based; settings: ATCC 7966, 2 h
Protocol: as §1, with “After incubation at 37°C for 22 ± 2 h, turbidity was measured using an EnSpire multimode plate reader (PerkinElmer, Singapore) at 595 nm.” left out

[4] = system: Pseudomonas aeruginosa PAO1; format: cell-based; settings: PAO1, 2 h
Protocol: as §1, with “After incubation at 37°C for 22 ± 2 h, turbidity was measured using an EnSpire multimode plate reader (PerkinElmer, Singapore) at 595 nm.” left out

[5] = system: Staphylococcus aureus ATCC 25923; format: cell-based; settings: ATCC 25923, 2 h
Protocol: as §1, with “After incubation at 37°C for 22 ± 2 h, turbidity was measured using an EnSpire multimode plate reader (PerkinElmer, Singapore) at 595 nm.” left out

[6] = system: Streptococcus pneumoniae ATCC 49619; format: cell-based; settings: ATCC 49619, 2 h
Protocol: as §1, with “After incubation at 37°C for 22 ± 2 h, turbidity was measured using an EnSpire multimode plate reader (PerkinElmer, Singapore) at 595 nm.” left out

[7] = system: Escherichia coli ATCC 25922; format: cell-based; settings: ATCC 25922, 2 h
Protocol: as §1, with “After incubation at 37°C for 22 ± 2 h, turbidity was measured using an EnSpire multimode plate reader (PerkinElmer, Singapore) at 595 nm.” left out

[8] = system: Streptococcus agalactiae ATCC 13813; format: cell-based; settings: ATCC 13813, 2 h
Protocol: as §1, with “After incubation at 37°C for 22 ± 2 h, turbidity was measured using an EnSpire multimode plate reader (PerkinElmer, Singapore) at 595 nm.” left out

E. coli ATCC 25922 = assay: SYTOX green membrane permeability assay; format: cell-based, Escherichia coli; settings: E. coli ATCC 25922, 5 μM SYTOX green, read every 1 min
Protocol: The SYTOX green staining assay was performed to assess peptide-associated membrane damage ([47], [52]). E. coli ATCC 25922 and S. aureus ATCC 25923 cells in the mid-logarithmic phase were collected, washed thrice, and resuspended (5 × 10^7 CFU/mL) in buffer B (10 mM Tris-HCl, pH 7.4, at 25°C). The bacterial suspensions were mixed with 5 μM SYTOX green and incubated for 15 min at room temperature in the dark. Then, the mixtures were added to black, clear-bottom 96-well plates at a density of 100 μL/well. After peptide addition, SYTOX green uptake was monitored using an EnSpire multimode plate reader (PerkinElmer, Singapore) with an excitation wavelength of 485 nm and an emission wavelength of 520 nm. Each measurement interval was 1 min, totaling 30 to 60 times. Melittin was used as the positive control, while bovine serum albumin (BSA) was the negative control.

P. aeruginosa FRD1 = format: cell-based, Pseudomonas aeruginosa; settings: FRD1, 2 h
Protocol: as §1, with “After incubation at 37°C for 22 ± 2 h, turbidity was measured using an EnSpire multimode plate reader (PerkinElmer, Singapore) at 595 nm.” left out

[9] = system: Methicillin-resistant S. aureus USA300; format: cell-based, Staphylococcus aureus; settings: USA300, 2 h
Protocol: as §1, with “After incubation at 37°C for 22 ± 2 h, turbidity was measured using an EnSpire multimode plate reader (PerkinElmer, Singapore) at 595 nm.” left out

[10] = system: Methicillin-resistant S. aureus ATCC 43300; format: cell-based, Staphylococcus aureus; settings: ATCC 43300, 2 h
Protocol: as §1, with “After incubation at 37°C for 22 ± 2 h, turbidity was measured using an EnSpire multimode plate reader (PerkinElmer, Singapore) at 595 nm.” left out

| MIC [2] | MIC [3] | MIC [4] | MIC [5] | MIC [6] | MIC [7] | MIC [8] | MIC (P. aeruginosa FRD1) | MIC [9] | MIC [10] | SMILES | MIC in 6 μM NH4Cl ([1]; 6 μM NH4Cl) | MIC in 1 mM MgCl2 ([1]; 1 mM MgCl2) | MIC in 2.5 mM CaCl2 ([1]; 2.5 mM CaCl2) | MIC in 4.5 mM KCl ([1]; 4.5 mM KCl) | MIC in 150 mM NaCl ([1]; 150 mM NaCl) | MIC in MS at concn 10% ([1]; 10% mouse serum) | MIC in MS at concn 20% ([1]; 20% mouse serum) | MIC in MS at concn 40% ([1]; 40% mouse serum) | MIC in Control ([1]; control, bacteria treated with peptide only) | SYTOX green fluorescence intensity (E. coli ATCC 25922) |
| --- | --- | --- | --- | --- | --- | --- | --- | --- | --- | --- | --- | --- | --- | --- | --- | --- | --- | --- | --- | --- |
| – | – | – | – | – | – | – | – | – | – | CC[C@H](C)[C@H](NC(=O)CN)C(=O)NCC(=O)N[C@@H](C)C(=O)N[C@H](C(=O)N[C@@H](CC(C)C)C(=O)N[C@@H](CCCCN)C(=O)N[C@H](C(=O)N[C@@H](CC(C)C)C(=O)N[C@H](C(=O)N[C@H](C(=O)NCC(=O)N[C@@H](CC(C)C)C(=O)N1CCC[C@H]1C(=O)N[C@@H](C)C(=O)N[C@@H](CC(C)C)C(=O)N[C@H](C(=O)N[C@@H](CO)C(=O)N[C@@H](Cc1c[nH]c2ccccc12)C(=O)N[C@H](C(=O)N[C@@H](CCCCN)C(=O)N[C@@H](CCCNC(=N)N)C(=O)N[C@@H](CCCCN)C(=O)N[C@@H](CCCNC(=N)N)C(=O)N[C@@H](CCC(N)=O)C(=O)N[C@@H](CCC(N)=O)C(N)=O)[C@@H](C)CC)[C@@H](C)CC)[C@@H](C)O)[C@@H](C)O)C(C)C)C(C)C [Melittin] | 6.25 µg/mL (≈ 2.2 µM) | 6.25 µg/mL (≈ 2.2 µM) | 6.25 µg/mL (≈ 2.2 µM) | 6.25 µg/mL (≈ 2.2 µM) | 6.25 µg/mL (≈ 2.2 µM) | 25.00 µg/mL (≈ 8.78 µM) | 50.00 µg/mL (≈ 17.6 µM) | 200.00 µg/mL (≈ 70.3 µM) | 6.25 µg/mL (≈ 2.2 µM) | – |
| >50.00 µg/mL | >50.00 µg/mL | 25.00 µg/mL (≈ 8.21 µM) | 12.50 µg/mL (≈ 4.1 µM) | 25.00 µg/mL (≈ 8.21 µM) | 25.00 µg/mL (≈ 8.21 µM) | 25.00 µg/mL (≈ 8.21 µM) | 25.00 µg/mL (≈ 8.21 µM) | 25.00 µg/mL (≈ 8.21 µM) | 25.00 µg/mL (≈ 8.21 µM) | CC[C@H](C)[C@H](NC(=O)[C@H](CCCCN)NC(=O)[C@H](CCSC)NC(=O)[C@H](C)NC(=O)[C@H](CC(C)C)NC(=O)[C@H](Cc1c[nH]cn1)NC(=O)[C@H](CCCNC(=N)N)NC(=O)[C@H](CCCCN)NC(=O)[C@H](CCCCN)NC(=O)[C@H](CCCCN)NC(=O)[C@H](CCSC)NC(=O)[C@H](CC(C)C)NC(=O)[C@H](CC(C)C)NC(=O)[C@H](CC(=O)O)NC(=O)[C@H](CC(C)C)NC(=O)[C@H](Cc1c[nH]cn1)NC(=O)[C@H](CCCCN)NC(=O)[C@H](CCCCN)NC(=O)[C@@H](NC(=O)[C@H](CCCNC(=N)N)NC(=O)[C@@H]1CCCN1C(=O)[C@H](Cc1c[nH]cn1)NC(=O)[C@H](C)N)[C@@H](C)CC)C(=O)N[C@@H](C)C(=O)N[C@@H](C)C(=O)N1CCC[C@H]1C(=O)O [chCCL27a-26] (H-AHPRIKKHLDLLMKKKRHLAMKIAAP-OH; N-terminus and C-terminus assumed) | – | – | – | – | – | – | – | – | – | fluorescence trends similar to the trends in E. coli cells treated with lcCCL28-25 |
